In patent US8378117B2 (priority 2005, dated 2013):

Experiments:
CB1 receptor = target: T1, CB1 receptor (Homo sapiens, UniProt P21554); experiment: Binding assay for CB1 agonists or inverse agonists (SK-N-MC membranes, [3H]-CP-55,940); details: for inhibition at 0.25 µM: read-out: CB1 receptor binding percent inhibition, test concentration 0.25 μM (footnote 8); for inhibition at 0.2 µM: read-out: CB1 receptor binding percent inhibition, test concentration 0.2 μM (footnote 2); for inhibition at 1 µM: read-out: CB1 receptor binding percent inhibition, test concentration 1 μM (footnote 1)
T1 construct: expressed in transfected cells
T1 sequence (P21554 whole entry): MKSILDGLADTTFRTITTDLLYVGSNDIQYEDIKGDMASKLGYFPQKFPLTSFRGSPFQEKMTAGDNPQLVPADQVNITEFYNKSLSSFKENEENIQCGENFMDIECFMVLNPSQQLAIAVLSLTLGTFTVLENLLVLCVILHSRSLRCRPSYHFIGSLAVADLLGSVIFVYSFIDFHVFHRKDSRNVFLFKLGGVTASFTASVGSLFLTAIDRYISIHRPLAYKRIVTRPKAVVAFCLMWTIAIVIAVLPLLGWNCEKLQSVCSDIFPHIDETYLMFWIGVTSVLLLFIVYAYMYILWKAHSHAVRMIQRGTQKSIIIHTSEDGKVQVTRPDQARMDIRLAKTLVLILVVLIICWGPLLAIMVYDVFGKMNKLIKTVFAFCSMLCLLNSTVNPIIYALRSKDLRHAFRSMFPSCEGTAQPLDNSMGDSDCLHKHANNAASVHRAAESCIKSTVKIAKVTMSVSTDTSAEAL
Experimental: (§1) The human CB1 and CB2 receptors were stably expressed in SK-N-MC cells transfected with pcDNA3 CB-1 (human) or pcDNA3 CB-2 (human). The cells were grown in T-180 cell culture flasks under standard cell culture conditions at 37° C. in a 5% CO2 atmosphere. The cells were harvested by trysinization and homogenized in a homogenization buffer (10 mM Tris, 0.2 mM MgCl2, 5 mM KCl, with protease inhibitors aprotinin, leupeptin, pepstatin A and bacitracin) and centrifuged (2000 g). The supernatant was then centrifuged in 2M sucrose (31,300 g) to produce a semi-purified membrane pellet. The pellet was resuspended in homogenization and stored at −80° C.
(§2) On the day of the assay, the pellet was thawed on ice and diluted in assay buffer (50 mM Tris-HCl, 5 mM MgCl2, 2.5 mM EDTA, 0.5 mg/mL fatty acid free bovine serum aldumin, pH 7.5). The diluted membrane pellet was added with buffer, either a test compound or vehicle standard and the radioligand [H]^3+-CP-55,940 (0.2 mM) to the wells of a 96-well polypropylene plate. Non-specific binding was measured in wells containing WIN 55,212 (10 uM). The plate was covered and incubated for 90 minutes at 30° C. The contents were then aspirated onto a Packard Unifilter GF/C filter bottom plate prewet with 0.5% polyethyleneimine. The wells of the polypropylene plate were rinsed and aspirated seven times with a 0.9% saline-0.5% Tween 20 solution. The Unifilter plate was dried, a scintillation cocktail was added to each well and the counts representing binding were quantitated in a TopCount scintillation counter.
(§3) For compounds tested, an IC50 binding value was obtained from percent inhibition studies in which various test concentrations were used. The binding value was calculated by linear regression.

CB2 receptor = target: T2, CB2 receptor (Homo sapiens, UniProt P34972); experiment: Binding assay for CB2 agonists or inverse agonists (SK-N-MC membranes, [3H]-CP-55,940); details: for inhibition at 0.25 µM: test concentration 0.25 μM (footnote 8); for inhibition at 0.2 µM: test concentration 0.2 μM (footnote 2); for CB2 receptor binding percent inhibition: test concentration not stated
T2 construct: expressed in transfected cells
T2 sequence (P34972 whole entry): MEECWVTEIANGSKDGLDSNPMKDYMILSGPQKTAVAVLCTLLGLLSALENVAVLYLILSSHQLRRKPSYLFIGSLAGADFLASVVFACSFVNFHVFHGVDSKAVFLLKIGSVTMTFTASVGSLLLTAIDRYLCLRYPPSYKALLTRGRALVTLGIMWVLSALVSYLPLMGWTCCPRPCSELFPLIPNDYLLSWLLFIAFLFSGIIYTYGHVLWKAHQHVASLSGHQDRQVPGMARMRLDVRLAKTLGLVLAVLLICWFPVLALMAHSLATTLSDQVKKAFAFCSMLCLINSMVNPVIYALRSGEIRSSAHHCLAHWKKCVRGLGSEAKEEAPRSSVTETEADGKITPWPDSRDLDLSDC
Experimental: as §1
as §2, with “The diluted membrane pellet was added with buffer, either a test compound or vehicle standard and the radioligand [H]^3+-CP-55,940 (0.2 mM) to the wells of a 96-well polypropylene plate. Non-specific binding was measured in wells containing WIN 55,212 (10 uM).” left out
as §3

[1] = read-out: CB2 receptor binding percent inhibition

| Compound | inhibition at 1 µM (CB1 receptor) | CB2 receptor binding percent inhibition (CB2 receptor) | also measured |
| --- | --- | --- | --- |
| O=C(NCc1cccc(C(F)(F)F)c1)c1nn(Cc2ccccc2)c2c1CCCCC2c1ccccc1 (stereo not drawn) [Cpd 69, 1-benzyl-8-phenyl-1,4,5,6,7,8-hexahydro-cycloheptapyrazole-3-carboxylic acid 3-trifluoromethyl-benzylamide] | – | – | inhibition at 0.25 µM (CB1 receptor): 23%; inhibition at 0.25 µM (CB2 receptor; [1]): 12% |
| C[C@H](NC(=O)c1nn(-c2ccncc2)c2c1CCCC/C2=C\c1ccc(Cl)cc1)C1CCCCC1 [Cpd 181, (8E)-8-(4-chloro-benzylidene)-1-pyridin-4-yl-1,4,5,6,7,8-hexahydro-cycloheptapyrazole-3-carboxylic acid [(1S)-1-cyclohexyl-ethyl]-amide] | – | – | inhibition at 0.2 µM (CB1 receptor): 32%; inhibition at 0.2 µM (CB2 receptor; [1]): 57% |
| O=C(NC1CC1)c1nn(C2CCCCC2)c2c1CCCCC2Cc1cccc(Cl)c1 (stereo not drawn) [Cpd 32, 8-(3-chloro-benzyl)-1-cyclohexyl-1,4,5,6,7,8-hexahydro-cycloheptapyrazole-3-carboxylic acid cyclopropylamide] | 0% | 0% | – |
| O=C(N[C@@H](CCl)Cc1ccccc1)c1nn(-c2nccc(C(F)(F)F)n2)c2c1CCCCC2Cc1cccc(Cl)c1 (stereo partly drawn) [Cpd 187, 8-(3-chloro-benzyl)-1-(4-trifluoromethyl-pyrimidin-2-yl)-1,4,5,6,7,8-hexahydro-cycloheptapyrazole-3-carboxylic acid [(1R)-1-benzyl-2-chloro-ethyl]-amide] | – | – | inhibition at 0.2 µM (CB1 receptor): 12%; inhibition at 0.2 µM (CB2 receptor; [1]): 23% |
| O=C(N[C@@H]1c2ccccc2C[C@@H]1O)c1nn(-c2ccc(F)cc2F)c2c1CCCCC2Cc1cccc(F)c1 (stereo partly drawn) [Cpd 100, 1-(2,4-difluoro-phenyl)-8-(3-fluoro-benzyl)-1,4,5,6,7,8-hexahydro-cycloheptapyrazole-3-carboxylic acid [(1R,2S)-2-hydroxy-indan-1-yl]-amide] | 31% | 9% | – |
| O=C(NC1CCCC1)c1nn(C2CCCCC2)c2c1CCCCC2Cc1ccc(F)cc1 (stereo not drawn) [Cpd 59, 1-cyclohexyl-8-(4-fluoro-benzyl)-1,4,5,6,7,8-hexahydro-cycloheptapyrazole-3-carboxylic acid cyclopentylamide] | 27% | 60% | – |
| O=C(NC1CCC1)c1nn(Cc2ccc(Cl)cc2)c2c1CCCCC2Cc1ccc(Cl)cc1 (stereo not drawn) [Cpd 30, 1,8-bis-(4-chloro-benzyl)-1,4,5,6,7,8-hexahydro-cycloheptapyrazole-3-carboxylic acid cyclobutylamide] | 28% | – | IC50 (CB2 receptor; calculated by linear regression from percent inhibition at various test concentrations, read-out: Cannabinoid CB2 Receptor Binding IC50): 600 nM; inhibition at 1 µM (CB2 receptor; test concentration 1 μM (footnote 1), read-out: CB2 receptor binding percent inhibition): 65% |
| O=C(N[C@@H](CO)c1ccccc1)c1nn(C2CCCCC2)c2c1CCCCC2Cc1ccc(F)cc1 (stereo in doubt) [Cpd 67, (8S*)-1-cyclohexyl-8-(4-fluoro-benzyl)-1,4,5,6,7,8-hexahydro-cycloheptapyrazole-3-carboxylic acid [(1R)-2-hydroxy-1-phenyl-ethyl]-amide] | 44% | 55% | – |
| O=C(NCC(F)(F)F)c1nn(Cc2ccccc2)c2c1CCCCC2c1ccccc1 (stereo not drawn) [Cpd 86, 1-benzyl-8-phenyl-1,4,5,6,7,8-hexahydro-cycloheptapyrazole-3-carboxylic acid (2,2,2-trifluoro-ethyl)-amide] | – | – | inhibition at 0.25 µM (CB1 receptor): 0%; inhibition at 0.25 µM (CB2 receptor; [1]): 22% |
| NS(=O)(=O)c1ccc(NC(=O)c2nn(-c3ccc(Cl)cc3Cl)c3c2CCCC/C3=C\c2ccc(Cl)cc2)cc1 [Cpd 154, (8E)-8-(4-chloro-benzylidene)-1-(2,4-dichloro-phenyl)-1,4,5,6,7,8-hexahydro-cycloheptapyrazole-3-carboxylic acid (4-sulfamoyl-phenyl)-amide] | – | – | inhibition at 0.2 µM (CB1 receptor): 33%; inhibition at 0.2 µM (CB2 receptor; [1]): 7% |
| O=C(c1nn(C2CCCCC2)c2c1CCCCC2Cc1ccc(F)cc1)N1CCN(c2ccccc2)CC1 (stereo not drawn) [Cpd 60, [1-cyclohexyl-8-(4-fluoro-benzyl)-1,4,5,6,7,8-hexahydro-cycloheptapyrazol-3-yl]-(4-phenyl-piperazin-1-yl)-methanone] | 38% | 38% | – |
| O=C(NC1C2CC3CC(C2)CC1C3)c1nn(-c2ccc(Cl)cc2Cl)c2c1CCCCC2Cc1ccc(Cl)cc1 (stereo not drawn) [Cpd 18, 8-(4-chloro-benzyl)-1-(2,4-dichloro-phenyl)-1,4,5,6,7,8-hexahydro-cycloheptapyrazole-3-carboxylic acid adamantan-2-ylamide] | 3% | 23% | – |
| C[C@@H](NC(=O)c1nn(-c2ccnc3cc(Cl)ccc23)c2c1CCCCC2Cc1cccc(Cl)c1)c1ccccc1 (stereo partly drawn) [Cpd 177, 8-(3-chloro-benzyl)-1-(7-chloro-quinolin-4-yl)-1,4,5,6,7,8-hexahydro-cycloheptapyrazole-3-carboxylic acid [(1R)-1-phenyl-ethyl]-amide] | – | – | inhibition at 0.2 µM (CB1 receptor): 4%; inhibition at 0.2 µM (CB2 receptor; [1]): 27% |
| O=C(NCc1ccccc1)c1nn(C2CCCCC2)c2c1CCCCC2Cc1ccc(F)cc1 (stereo not drawn) [Cpd 61, 1-cyclohexyl-8-(4-fluoro-benzyl)-1,4,5,6,7,8-hexahydro-cycloheptapyrazole-3-carboxylic acid benzylamide] | 36% | 71% | – |
| COC(=O)[C@@H](Cc1ccc(F)cc1)NC(=O)c1nn(-c2ccc(Cl)cc2Cl)c2c1CCCCC2Cc1cccc(Cl)c1 (stereo partly drawn) [Cpd 103, (2R)-2-{[8-(3-chloro-benzyl)-1-(2,4-dichloro-phenyl)-1,4,5,6,7,8-hexahydro-cycloheptapyrazole-3-carbonyl]-amino}-3-(4-fluoro-phenyl)-propionic acid methyl ester] | 76% | 57% | IC50 (CB1 receptor; Cannabinoid CB1 Receptor Binding IC50, calculated by linear regression from percent inhibition at various test concentrations): 300 nM; inhibition at 0.5 µM (CB1 receptor; read-out: CB1 receptor binding percent inhibition, test concentration 0.5 μM (footnote 10)): 56% |
| O=C(NC1CCC1)c1nn(C2CCCCC2)c2c1CCCCC2Cc1ccc(F)cc1 (stereo not drawn) [Cpd 57, 1-cyclohexyl-8-(4-fluoro-benzyl)-1,4,5,6,7,8-hexahydro-cycloheptapyrazole-3-carboxylic acid cyclobutylamide] | 35% | 29% | – |
| O=C(NC1CC1)c1nn(C2CCCCC2)c2c1CCCCC2Cc1ccccc1Cl (stereo not drawn) [Cpd 31, 8-(2-chloro-benzyl)-1-cyclohexyl-1,4,5,6,7,8-hexahydro-cycloheptapyrazole-3-carboxylic acid cyclopropylamide] | 0% | 35% | – |
| COC(=O)[C@H](Cc1ccc(F)cc1)NC(=O)c1nn(-c2ccc(Cl)cc2Cl)c2c1CCCCC2Cc1ccc(F)cc1 (stereo partly drawn) [Cpd 72, (2S)-2-{[1-(2,4-dichloro-phenyl)-8-(4-fluoro-benzyl)-1,4,5,6,7,8-hexahydro-cycloheptapyrazole-3-carbonyl]-amino}-3-(4-fluoro-phenyl)-propionic acid methyl ester] | – | 10% | CB1 receptor binding average percent inhibition (CB1 receptor; value shown is an average percent inhibition (footnote 5), concentration not given): ^(5)38% |
| O=C(NC1CC1)c1nn(-c2ccc(Cl)cc2Cl)c2c1CCCCC2Cc1ccc(Cl)cc1 (stereo not drawn) [Cpd 38, 8-(4-chloro-benzyl)-1-(2,4-dichloro-phenyl)-1,4,5,6,7,8-hexahydro-cycloheptapyrazole-3-carboxylic acid cyclopropylamide] | 39% | 0% | – |
| COc1ccc(/C=C2\CCCCc3c(C(=O)N[C@@H]4CCC[C@H]4O)nn(-c4ccc(Cl)cc4Cl)c32)cc1 [Cpd 221, (8E)-1-(2,4-dichloro-phenyl)-8-(4-methoxy-benzylidene)-1,4,5,6,7,8-hexahydro-cycloheptapyrazole-3-carboxylic acid [(1R,2R)-2-hydroxy-cyclopentyl)-amide] | – | – | inhibition at 0.2 µM (CB2 receptor; [1]): 24% |
